From PMC6321136, “Combined In Vitro Studies and in Silico Target Fishing for the Evaluation of the Biological Activities of Diphylleia cymosa and Podophyllum hexandrum” (Molecules, 2018)
Like-named read-outs stand apart in the source and are kept apart here.

Key:
[1] = Thiobarbituric acid reactive substances (TBARS) assay; parameters: species or system bovine
Protocol: The evaluation of antioxidant activity using the TBARS assay, with adaptations. Briefly, the samples were solubilized in methanol (50.0 to 31.25 μg/mL) and a portion of 25 μL of each extract solution was added to 10 mL test tubes in triplicate (two reaction tubes and one control). The tubes corresponding to the blank, negative and positive controls were prepared by adding 25 μL of deionized water, MeOH or propylgalate (Sigma, St. Louis, MO, USA, 0.1 mM), respectively. The phospholipid liposomes were prepared using bovine brain extract type VII (Sigma Aldrich, St. Louis, MO, USA, 10 mg/mL) in phosphate buffered saline (PBS) solution. The suspension was subjected to an ultrasonic bath until the formation of the liposomes. […] The butanolic phase was removed and transferred to a 96-well microplate, and the absorbance was recorded on a Multiskan Go microplate reader (Thermo Scientific, Whaltham, MA, USA) at 532 nm. The percentage of inhibition (%I) of lipid peroxidation was calculated as: %I = ((AC − AS)/AC) × 100 where AC is the absorbance of control, AS is the absorbance of samples. Assays were performed in triplicate and IC50 values were determined by non-linear regression using GraphPad Prism, version 6.0 (GraphPad Software, San Diego, CA, USA). […]

[2] = parameters: method as in Dar et al. [63]; conditions: ref Dar et al. [63]; cited from earlier work
[3] = test system: Activate, aryl hydrocarbon receptor (AhR); parameters: method as in PubChem Bioassay AID 743122; conditions: ref PubChem Bioassay AID 743122; cited from earlier work
[4] = test system: Activators, heat shock response; parameters: method as in PubChem Bioassay AID 743210; conditions: ref PubChem Bioassay AID 743210; cited from earlier work
[5] = test system: Activators, heat shock response; parameters: method as in PubChem Bioassay AID 743228; conditions: ref PubChem Bioassay AID 743228; cited from earlier work
[6] = test system: Agonist, endoplasmic reticulum stress response; parameters: method as in PubChem Bioassay AID 1159519; conditions: ref PubChem Bioassay AID 1159519; cited from earlier work
Agonist, Histone H2A.x [7] = test system: Agonist, Histone H2A.x; parameters: method as in PubChem Bioassay AID 1224845; conditions: ref PubChem Bioassay AID 1224845; cited from earlier work
Agonist, Histone H2A.x [8] = test system: Agonist, Histone H2A.x; parameters: method as in PubChem Bioassay AID 1224896; conditions: ref PubChem Bioassay AID 1224896; cited from earlier work
Angiogenesis model = test system: Angiogenesis model; parameters: method as in PubChem Bioassay AID 1117337; conditions: ref PubChem Bioassay AID 1117337; cited from earlier work
[9] = test system: Antagonist, androgen receptor (AR); parameters: method as in PubChem Bioassay AID 1259247; conditions: ref PubChem Bioassay AID 1259247; cited from earlier work
[10] = test system: Antagonist, constitutive androstane receptor (CAR); parameters: method as in PubChem Bioassay AID 1224838; conditions: ref PubChem Bioassay AID 1224838; cited from earlier work
Anticancer, colon = test system: Anticancer, colon; parameters: method as in PubChem Bioassay AID 1834; conditions: ref PubChem Bioassay AID 1834; cited from earlier work
Anticancer, Sarcoma = test system: Anticancer, Sarcoma; parameters: method as in PubChem Bioassay AID 292; conditions: ref PubChem Bioassay AID 292; cited from earlier work
Anti-Inflammatory model [11] = test system: Anti-Inflammatory model; parameters: method as in PubChem Bioassay AID 435020; conditions: ref PubChem Bioassay AID 435020; cited from earlier work
Anti-Inflammatory model [12] = test system: Anti-Inflammatory model; parameters: method as in PubChem Bioassay AID 489033; conditions: ref PubChem Bioassay AID 489033; cited from earlier work
AP1 Signaling Pathway = test system: AP1 Signaling Pathway; parameters: method as in PubChem Bioassay AID 357; conditions: ref PubChem Bioassay AID 357; cited from earlier work
[13] = test system: Cytotoxicity, Activate, aryl hydrocarbon receptor (AhR); parameters: method as in PubChem Bioassay AID 743086; conditions: ref PubChem Bioassay AID 743086; cited from earlier work
[14] = test system: Cytotoxicity, Agonist, hypoxia; parameters: method as in PubChem Bioassay AID 1224844; conditions: ref PubChem Bioassay AID 1224844; cited from earlier work
[15] = test system: Cytotoxicity, Agonist, vitamin D receptor (VDR); parameters: method as in PubChem Bioassay AID 743224; conditions: ref PubChem Bioassay AID 743224; cited from earlier work
[16] = test system: Cytotoxicity, Antagonist, androgen receptor (AR); parameters: method as in PubChem Bioassay AID 743041; conditions: ref PubChem Bioassay AID 743041; cited from earlier work

Q: Which results are given for COc1cc([C@@H]2c3cc4c(cc3[C@H](O)[C@H]3COC(=O)[C@H]23)OCO4)cc(OC)c1OC [Podophyllotoxin, podophyllotoxin]?
A: Antioxidant Activity (IC50-µg/mL) TBARS Assay [1]: >50 µg/mL; IC50 DPPH sequestration [2]: higher than 250 μg/mL; Exper. Activity [3]: Active; Exper. Activity [4]: Inactive; Exper. Activity [5]: Inactive; Exper. Activity [6]: Inactive; Exper. Activity (Agonist, Histone H2A.x [7]): Inactive; Exper. Activity (Agonist, Histone H2A.x [8]): Inactive; Exper. Activity (Angiogenesis model): Active; Exper. Activity [9]: Inactive; Exper. Activity [10]: Active; Exper. Activity (Anticancer, colon): Active; Exper. Activity (Anticancer, Sarcoma): Active; Exper. Activity (Anti-Inflammatory model [11]): Active; Exper. Activity (Anti-Inflammatory model [12]): Inactive; Exper. Activity (AP1 Signaling Pathway): Inactive; Exper. Activity [13]: Inactive; Exper. Activity [14]: Inactive; Exper. Activity [15]: Inactive; Exper. Activity [16]: Inactive
